Reference: PMC4061482 (Frontiers in Oncology, 2014)

Tests used:
LAPC4 AKR1C3 cells [1] = experiment: Cell proliferation (sulforhodamine B), 5 days; format: cell-based, human
Method: (§1) Cells were seeded into 96-well plates in hormone-deprived media at appropriate seeding densities (5000–20,000 cells per well) to reach approximately 70% confluency at the time of sampling and left to settle for 48 h at 37°C and 5% CO2. […] The plates were returned to the incubator for 5 days before fixing in 10% trichloroacetic acid (Merck Millipore) at 4°C for 1 h and staining with 0.4% sulforhodamine B (Sigma-Aldrich) in 1% acetic acid for 30 min in the dark at room temperature. Plates were washed in 1% acetic acid, dried, and incubated with unbuffered Tris base (10 mM; Serva) for 30 min on a plate shaker in the dark to solubilize the stain. The plates were read on a BioTek EL808 microplate reader at an absorbance of 490 nm with a reference wavelength of 450 nm.
(§2) Finally, we investigated whether inhibiting AKR1C3-dependent testosterone or 17β-estradiol production could prevent androstenedione- or estrone-stimulated cell proliferation in CRPC or ER-positive breast cancer cells.

LAPC4 wild-type cells [2] = experiment: Cell proliferation (sulforhodamine B), 5 days; format: cell-based, human; conditions: 10 μM
Method: as §1, §2

22RV1 cells [3] = experiment: Cell proliferation (sulforhodamine B), 5 days; format: cell-based, human; conditions: 10 μM
Method: as §1, §2

all cell lines = experiment: Unstimulated cell proliferation (sulforhodamine B), 5 days, all cell lines; format: cell-based, human; conditions: 10 μM, all cell lines except MCF7
Method: as §1, §2

other AKR1C isoforms = experiment: Inhibition of isolated AKR1C enzymes; format: biochemical; conditions: 10 μM; unpublished data
LAPC4 wild-type cells [4] = experiment: PSA concentration after androstenedione stimulation; format: cell-based, human; conditions: 10 μM; androstenedione up to 10 nM, 24 h
Method: Cells were seeded at 20,000 cells per well (LAPC4, LAPC4 AKR1C3) or 50,000 cells per well (22RV1) into 96-well plates in hormone-deprived media and left to settle for 24 h at 37°C and 5% CO2. […] The plates were returned to the incubator for 24 h, before the cell supernatant was removed and frozen for PSA analysis. Determination of total PSA concentration was carried out at LabPLUS, Auckland City Hospital, by immunoassay on a Cobas® e601 analyzer according to manufacturer’s instructions (Roche).
Next, PSA expression was determined in the CRPC cell lines that were sensitive to SN33638-mediated inhibition of testosterone (LAPC4 AKR1C3 and 22RV1 with LAPC4 wild-type cells acting as a negative control) as a biomarker of AR activity. […] Androstenedione stimulation promoted PSA production in all three cell lines, with the highest PSA levels observed in LAPC4 AKR1C3 cells.

NCI-H460 cells = experiment: 17β-estradiol ELISA after estrone stimulation; format: cell-based; conditions: Homo sapiens, 28 nM estrone, 24 h, read-out: Inhibition of 17β-estradiol formation
Method: Cells were seeded into 96-well plates in hormone-deprived media at appropriate seeding densities [10,000–50,000 cells per well for all lines except HCC1500 (100,000 cells per well; 11β-PGF2α ELISA)] to reach approximately 70% confluency at the time of sampling and were left to settle for 24 h at 37°C and 5% CO2. Inhibitors were added to the plates at single or multiple concentrations for 1 h prior to administration of equimolar (28 nM) concentrations of PGD2 (11β-PGF2α ELISA), androstenedione (testosterone ELISA), or estrone (17β-estradiol ELISA). The plates were returned to the incubator for a further 24 h before cell supernatant was removed for analysis of 11β-PGF2α, testosterone, or 17β-estradiol by ELISA as per manufacturer’s instructions (11β-PGF2α and testosterone ELISA, Cayman Chemical Company; 17β-estradiol ELISA, Oxford Biomedical Research), and cells were fixed for sulforhodamine B analysis as described below. Each ELISA plate was read at a wavelength of 405 nm (11β-PGF2α and testosterone) or 650 nM (17β-estradiol) on a SpectraMax M2 microplate reader (Molecular Devices) and quantitated against a standard curve generated in hormone-deprived culture media. Cross-reactivity to PGD2, androstenedione, or estrone was accounted for by adding these to cell-free wells of each ELISA plate. […]

LAPC4 AKR1C3 cells [5] = experiment: Testosterone ELISA after androstenedione stimulation; format: cell-based; conditions: Homo sapiens, 28 nM androstenedione, 24 h, read-out: Inhibition of testosterone levels
Method: Cells were seeded into 96-well plates in hormone-deprived media at appropriate seeding densities [10,000–50,000 cells per well for all lines except HCC1500 (100,000 cells per well; 11β-PGF2α ELISA)] to reach approximately 70% confluency at the time of sampling and were left to settle for 24 h at 37°C and 5% CO2. Inhibitors were added to the plates at single or multiple concentrations for 1 h prior to administration of equimolar (28 nM) concentrations of PGD2 (11β-PGF2α ELISA), androstenedione (testosterone ELISA), or estrone (17β-estradiol ELISA). […] Each ELISA plate was read at a wavelength of 405 nm (11β-PGF2α and testosterone) or 650 nM (17β-estradiol) on a SpectraMax M2 microplate reader (Molecular Devices) and quantitated against a standard curve generated in hormone-deprived culture media. […]
Since AKR1C3 has been implicated in the development of CRPC because of its ability to produce testosterone intratumorally from circulating androstenedione, we determined testosterone concentrations in the prostate cancer cell lines and known high and low AKR1C3-expressing cells after stimulation with androstenedione for 24 h. […]

22RV1 cells [6] = experiment: as above; format: cell-based, human
Method: Cells were seeded into 96-well plates in hormone-deprived media at appropriate seeding densities [10,000–50,000 cells per well for all lines except HCC1500 (100,000 cells per well; 11β-PGF2α ELISA)] to reach approximately 70% confluency at the time of sampling and were left to settle for 24 h at 37°C and 5% CO2. […] removed for analysis of 11β-PGF2α, testosterone, or 17β-estradiol by ELISA as per manufacturer’s instructions (11β-PGF2α and testosterone ELISA, Cayman Chemical Company; 17β-estradiol ELISA, Oxford Biomedical Research), and cells were fixed for sulforhodamine B analysis as described below. Each ELISA plate was read at a wavelength of 405 nm (11β-PGF2α and testosterone) or 650 nM (17β-estradiol) on a SpectraMax M2 microplate reader (Molecular Devices) and quantitated against a standard curve generated in hormone-deprived culture media. Cross-reactivity to PGD2, androstenedione, or estrone was accounted for by adding these to cell-free wells of each ELISA plate.
Since AKR1C3 has been implicated in the development of CRPC because of its ability to produce testosterone intratumorally from circulating androstenedione, we determined testosterone concentrations in the prostate cancer cell lines and known high and low AKR1C3-expressing cells after stimulation with androstenedione for 24 h.

## CC1CCCCN1S(=O)(=O)c1ccc(N2CCCC2=O)cc1 (centres unmarked) [SN33638]
LAPC4 AKR1C3 cells [1]; 10 μM, 1 nM androstenedione, non-significant
  Reduction in androstenedione-stimulated cell proliferation: 45.9%
LAPC4 AKR1C3 cells [1]; Homo sapiens, LAPC4, 120 h, 0.1 nM androstenedione, read-out: Inhibition of androstenedione-stimulated cell proliferation
  inhibition at 10 µM: 101%
LAPC4 wild-type cells [2]
  Effect on androstenedione-stimulated cell proliferation: no effect
22RV1 cells [3]
  Effect on androstenedione-stimulated cell proliferation: no effect
All cell lines
  Effect on unstimulated cell proliferation: no effect
Other AKR1C isoforms
  Inhibition against each isolated enzyme (other AKR1C isoforms): < 14%
LAPC4 wild-type cells [4]
  Effect on PSA formation: no significant effect
NCI-H460 cells
  inhibition at 10 µM: 39.6%
LAPC4 AKR1C3 cells [5]
  inhibition at 10 µM: 96.8%
22RV1 cells [6]; 5 days after stimulation with up to 10 nM androstenedione, data not shown
  Effect on testosterone levels: no inhibitory effect
22RV1 cells [6]; Homo sapiens, 22Rv1, 10 μM, 28 nM androstenedione, 24 h, read-out: Inhibition of testosterone levels
  inhibition at 10 µM: 50.8%
